Measurements published in patent publication US12252524B2, “GIP/GLP1 co-agonist compounds” (Eli Lilly and Company, priority 2018, dated 2025).
Numbered stars: 1 amine (or outer) side, 2 acyl side, 3 side chain; on linkers, the order of the positions; unused ones are H or OH. Square brackets hold non-standard residues; d marks the D form. Side chains are listed from the residue outwards. Peptide text beside a SMILES is read from it. * marks the point of attachment. C20 diacid = O=C(O)CCCCCCCCCCCCCCCCCCC(=O)*; γGlu = O=C(O)[C@H](CCC(=O)[*:2])N[*:1]; αMeF = C[C@](N)(Cc1ccccc1)C(=O)O; αMeL = CC(C)C[C@](C)(N)C(=O)O; AEEA = NCCOCCOCC(=O)O; Aib = CC(C)(N)C(=O)O

Columns and labels:
[1] = biological target: human GLP-1R (Homo sapiens, UniProt P43220); assay: [125I]-GLP-1 binding (SPA), human GLP-1 receptor; parameters: expressed in transfected cells; crude membranes; details: read-out: hGLP1R Ki, (nM) (SEM, n)
Sequence of human GLP-1R (P43220 24-463): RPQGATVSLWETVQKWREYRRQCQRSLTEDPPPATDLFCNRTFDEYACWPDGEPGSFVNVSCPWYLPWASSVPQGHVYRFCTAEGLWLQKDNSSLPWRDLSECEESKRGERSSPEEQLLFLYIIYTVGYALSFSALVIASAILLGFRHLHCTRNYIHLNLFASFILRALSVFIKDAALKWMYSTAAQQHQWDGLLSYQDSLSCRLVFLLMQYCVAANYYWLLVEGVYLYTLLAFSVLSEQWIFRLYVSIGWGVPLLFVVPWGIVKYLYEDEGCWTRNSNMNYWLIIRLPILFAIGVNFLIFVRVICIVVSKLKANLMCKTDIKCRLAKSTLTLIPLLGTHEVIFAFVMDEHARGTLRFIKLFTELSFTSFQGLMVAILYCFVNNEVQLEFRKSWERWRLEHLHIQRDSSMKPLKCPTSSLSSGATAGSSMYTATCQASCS
Method in brief: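 Ki values are geometric means with SEM over independent replicates on different days, derived from IC50s fitted by four-parameter nonlinear regression. The assay used crude cell membranes in HEPES buffer, pH 7.4, containing CaCl2, MgCl2, bacitracin and TWEEN-20.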

[2] = biological target: T1, gastric inhibitory peptide receptor (GIPR) (Homo sapiens, UniProt P48546); assay: cAMP pharmacological functional assay in presence of casein, hGIPR; assay type: cell-based; details: HEK293 cells expressing hGIPR, 0.1% Casein, geometric mean; read-out: hGIPR cAMP Rel EC50 nM (SEM, n)
T1 sequence (P48546 22-466): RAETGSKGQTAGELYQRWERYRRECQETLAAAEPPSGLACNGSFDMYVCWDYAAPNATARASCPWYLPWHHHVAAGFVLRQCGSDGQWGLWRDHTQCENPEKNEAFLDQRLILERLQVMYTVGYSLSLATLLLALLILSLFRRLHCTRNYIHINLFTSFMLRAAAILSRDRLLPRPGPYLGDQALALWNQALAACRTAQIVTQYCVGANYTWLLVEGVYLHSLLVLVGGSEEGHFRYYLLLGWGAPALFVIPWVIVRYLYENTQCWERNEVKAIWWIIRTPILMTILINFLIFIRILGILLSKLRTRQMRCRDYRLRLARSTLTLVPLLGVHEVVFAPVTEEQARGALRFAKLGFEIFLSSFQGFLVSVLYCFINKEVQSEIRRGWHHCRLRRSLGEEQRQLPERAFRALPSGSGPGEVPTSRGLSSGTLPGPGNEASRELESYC

[3] = biological target: T2, human GIP receptor (Homo sapiens, UniProt P48546); assay: [125I]-GIP binding (SPA), human GIP receptor; details: read-out: hGIPR Ki, nM (SEM, n)
T2 construct: expressed in transfected cells; crude membranes
T2 sequence (P48546 22-466): T1 sequence (P48546 22-466)

[4] = biological target: human GLP-1 receptor (GLP-1R) (Homo sapiens, UniProt P43220); assay: cAMP pharmacological functional assay in presence of casein, hGLP-1R; assay type: cell-based; details: HEK293 cells expressing hGLP-1R, 0.1% Casein, geometric mean; read-out: hGLP1R cAMP Rel EC50 nM (SEM, n)
Sequence of human GLP-1 receptor (GLP-1R) (P43220 24-463): as the sequence (P43220 24-463) above

[5] = biological target: T3, human Gcg receptor (Homo sapiens, UniProt P47871); assay: [125I]-Glucagon binding (SPA), human Gcg receptor; details: read-out: hGLcgR Ki, nM (SEM, n)
T3 construct: expressed in transfected cells; crude membranes
T3 sequence (P47871 26-477): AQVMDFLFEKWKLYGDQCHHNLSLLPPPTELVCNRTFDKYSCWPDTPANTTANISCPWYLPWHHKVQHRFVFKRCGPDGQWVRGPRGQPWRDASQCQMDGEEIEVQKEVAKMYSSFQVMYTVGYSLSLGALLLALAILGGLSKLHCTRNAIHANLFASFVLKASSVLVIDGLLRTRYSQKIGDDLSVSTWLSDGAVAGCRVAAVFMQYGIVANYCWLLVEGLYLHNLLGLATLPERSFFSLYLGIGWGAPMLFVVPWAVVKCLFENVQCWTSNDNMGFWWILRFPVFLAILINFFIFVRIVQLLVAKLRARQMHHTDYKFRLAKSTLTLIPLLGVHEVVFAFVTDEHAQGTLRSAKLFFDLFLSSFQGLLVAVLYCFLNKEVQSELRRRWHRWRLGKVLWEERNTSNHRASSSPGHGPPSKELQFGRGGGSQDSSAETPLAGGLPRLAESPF
Method in brief: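 Scintillation counts are taken after membranes and WGA beads incubate and settle for 12 hours at room temperature. Buffer is 25 mM HEPES, pH 7.4, with CaCl2, MgCl2, bacitracin and Tween-20. Ki values, from four-parameter IC50 fits, are geometric means over independent days.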

Row | SMILES | Ki [1] [nM] | EC50 [2] [nM] | Ki [3] [nM] | EC50 [4] [nM] | Ki [5] [nM]
1 | CC[C@H](C)[C@H](NC(=O)[C@H](CC(C)C)NC(=O)[C@H](Cc1ccc(O)cc1)NC(=O)[C@H](CCC(=O)O)NC(=O)[C@@H](NC(=O)[C@H](Cc1ccccc1)NC(=O)[C@H](C)NC(=O)[C@H](CCC(N)=O)NC(=O)[C@H](CCC(N)=O)NC(=O)[C@H](C)NC(=O)[C@H](CCCCNC(=O)COCCOCCNC(=O)COCCOCCNC(=O)CC[C@H](NC(=O)CCCCCCCCCCCCCCCCCCC(=O)O)C(=O)O)NC(=O)[C@H](CCC(=O)O)NC(=O)[C@H](CC(=O)O)NC(=O)[C@H](CC(C)C)NC(=O)[C@](C)(CC(C)C)NC(=O)[C@@H](NC(=O)[C@H](CO)NC(=O)[C@H](Cc1ccc(O)cc1)NC(=O)[C@H](CC(=O)O)NC(=O)[C@H](CO)NC(=O)[C@@H](NC(=O)[C@](C)(Cc1ccccc1)NC(=O)[C@@H](NC(=O)CNC(=O)[C@H](CCC(=O)O)NC(=O)C(C)(C)NC(=O)[C@@H](N)Cc1ccc(O)cc1)[C@@H](C)O)[C@@H](C)O)[C@@H](C)CC)[C@@H](C)CC)C(=O)N[C@@H](CCC(=O)O)C(=O)NCC(=O)NCC(=O)N1CCC[C@H]1C(=O)N[C@@H](CO)C(=O)N[C@@H](CO)C(=O)NCC(=O)N[C@@H](C)C(=O)N1CCC[C@H]1C(=O)N1CCC[C@H]1C(=O)N1CCC[C@H]1C(=O)N[C@@H](CO)C(N)=O [Example 121] (H-Y[Aib]EGT[αMeF]TSDYSI[αMeL]LDEK([AEEA-AEEA-γGlu-C20 diacid])AQQAFIEYLIEGGPSSGAPPPS-NH2) | 3.16 | 0.076 | 0.177 | 0.0849 | 51.9
2 | CC[C@H](C)[C@H](NC(=O)[C@H](Cc1ccccc1)NC(=O)[C@H](C)NC(=O)[C@H](CCC(N)=O)NC(=O)[C@H](CCC(N)=O)NC(=O)[C@H](C)NC(=O)[C@H](CCCCNC(=O)COCCOCCNC(=O)COCCOCCNC(=O)CC[C@H](NC(=O)CCCCCCCCCCCCCCCCCCC(=O)O)C(=O)O)NC(=O)[C@H](CCC(=O)O)NC(=O)[C@H](CC(=O)O)NC(=O)[C@H](CC(C)C)NC(=O)[C@](C)(CC(C)C)NC(=O)[C@@H](NC(=O)[C@H](CO)NC(=O)[C@H](Cc1ccc(O)cc1)NC(=O)[C@H](CC(=O)O)NC(=O)[C@H](CO)NC(=O)[C@@H](NC(=O)[C@](C)(Cc1ccccc1)NC(=O)[C@@H](NC(=O)CNC(=O)[C@H](CCC(=O)O)NC(=O)C(C)(C)NC(=O)[C@@H](N)Cc1ccc(O)cc1)[C@@H](C)O)[C@@H](C)O)[C@@H](C)CC)C(=O)N[C@@H](CCC(=O)O)C(=O)N[C@@H](Cc1ccc(O)cc1)C(=O)N[C@@H](CC(C)C)C(=O)N[C@H](C(=O)N[C@@H](CCC(=O)O)C(=O)NC(C)(C)C(=O)NCC(=O)N1CCC[C@H]1C(=O)N[C@@H](CO)C(=O)N[C@@H](CO)C(=O)NCC(=O)N[C@@H](C)C(=O)N1CCC[C@H]1C(=O)N1CCC[C@H]1C(=O)N1CCC[C@H]1C(=O)N[C@@H](CO)C(N)=O)[C@@H](C)CC [Example 122] (H-Y[Aib]EGT[αMeF]TSDYSI[αMeL]LDEK([AEEA-AEEA-γGlu-C20 diacid])AQQAFIEYLIE[Aib]GPSSGAPPPS-NH2) | 3.36 | 0.0923 | 0.19 | 0.076 | 43.3
3 | CC[C@H](C)[C@H](NC(=O)[C@H](CC(C)C)NC(=O)[C@H](Cc1ccc(O)cc1)NC(=O)[C@H](CCC(=O)O)NC(=O)[C@@H](NC(=O)[C@H](Cc1ccccc1)NC(=O)[C@H](CCC(=O)O)NC(=O)C(C)(C)NC(=O)[C@H](CCC(N)=O)NC(=O)[C@H](C)NC(=O)[C@H](CCCCNC(=O)COCCOCCNC(=O)COCCOCCNC(=O)CC[C@H](NC(=O)CCCCCCCCCCCCCCCCCCC(=O)O)C(=O)O)NC(=O)[C@H](CCC(=O)O)NC(=O)[C@H](CC(=O)O)NC(=O)[C@H](CC(C)C)NC(=O)[C@](C)(CC(C)C)NC(=O)[C@@H](NC(=O)[C@H](CO)NC(=O)[C@H](Cc1ccc(O)cc1)NC(=O)[C@H](CC(=O)O)NC(=O)[C@H](CO)NC(=O)[C@@H](NC(=O)[C@](C)(Cc1ccccc1)NC(=O)[C@@H](NC(=O)CNC(=O)[C@H](CCC(=O)O)NC(=O)C(C)(C)NC(=O)[C@@H](N)Cc1ccc(O)cc1)[C@@H](C)O)[C@@H](C)O)[C@@H](C)CC)[C@@H](C)CC)C(=O)N[C@@H](CCC(=O)O)C(=O)NCC(=O)NCC(=O)N1CCC[C@H]1C(=O)N[C@@H](CO)C(=O)N[C@@H](CO)C(=O)NCC(N)=O [Example 124] (H-Y[Aib]EGT[αMeF]TSDYSI[αMeL]LDEK([AEEA-AEEA-γGlu-C20 diacid])AQ[Aib]EFIEYLIEGGPSSG-NH2) | 4.87 | 0.0762 | 0.0424 | 0.0475 | 41.5
4 | CC[C@H](C)[C@H](NC(=O)[C@H](CC(C)C)NC(=O)[C@H](Cc1ccc(O)cc1)NC(=O)[C@H](CCC(=O)O)NC(=O)[C@@H](NC(=O)[C@H](Cc1ccccc1)NC(=O)[C@H](C)NC(=O)C(C)(C)NC(=O)[C@H](CCC(N)=O)NC(=O)[C@H](C)NC(=O)[C@H](CCCCNC(=O)COCCOCCNC(=O)COCCOCCNC(=O)CC[C@H](NC(=O)CC[C@H](NC(=O)CCCCCCCCCCCCCCCCCCC(=O)O)C(=O)O)C(=O)O)NC(=O)[C@H](CCCCN)NC(=O)[C@H](CC(=O)O)NC(=O)[C@H](CC(C)C)NC(=O)[C@](C)(CC(C)C)NC(=O)[C@@H](NC(=O)[C@H](CO)NC(=O)[C@H](Cc1ccc(O)cc1)NC(=O)[C@H](CC(=O)O)NC(=O)[C@H](CO)NC(=O)[C@@H](NC(=O)[C@](C)(Cc1ccccc1)NC(=O)[C@@H](NC(=O)CNC(=O)[C@H](CCC(=O)O)NC(=O)C(C)(C)NC(=O)[C@@H](N)Cc1ccc(O)cc1)[C@@H](C)O)[C@@H](C)O)[C@@H](C)CC)[C@@H](C)CC)C(=O)N[C@@H](CCC(=O)O)C(=O)NCC(=O)NCC(=O)N1CCC[C@H]1C(=O)N[C@@H](CO)C(=O)N[C@@H](CO)C(=O)NCC(=O)N[C@@H](C)C(=O)N1CCC[C@H]1C(=O)N1CCC[C@H]1C(=O)N1CCC[C@H]1C(=O)N[C@@H](CO)C(N)=O [Example 125] | 3.19 | 0.0381 | 0.0624 | 0.0478 | 54.4
5 | CC[C@H](C)[C@H](NC(=O)[C@H](CC(C)C)NC(=O)[C@H](Cc1ccc(O)cc1)NC(=O)[C@H](CCC(=O)O)NC(=O)[C@@H](NC(=O)[C@H](Cc1ccccc1)NC(=O)[C@H](C)NC(=O)C(C)(C)NC(=O)[C@H](CCC(N)=O)NC(=O)[C@H](C)NC(=O)[C@H](CCCCNC(=O)COCCOCCNC(=O)COCCOCCNC(=O)CC[C@H](NC(=O)CCCCCCCCCCCCCCCCCCC(=O)O)C(=O)O)NC(=O)[C@H](CCCCN)NC(=O)[C@H](CC(=O)O)NC(=O)[C@H](CC(C)C)NC(=O)[C@](C)(CC(C)C)NC(=O)[C@@H](NC(=O)[C@H](CO)NC(=O)[C@H](Cc1ccc(O)cc1)NC(=O)[C@H](CC(=O)O)NC(=O)[C@H](CO)NC(=O)[C@@H](NC(=O)[C@](C)(Cc1ccccc1)NC(=O)[C@@H](NC(=O)CNC(=O)[C@H](CCC(=O)O)NC(=O)C(C)(C)NC(=O)[C@@H](N)Cc1ccc(O)cc1)[C@@H](C)O)[C@@H](C)O)[C@@H](C)CC)[C@@H](C)CC)C(=O)N[C@@H](CCC(=O)O)C(=O)N[C@@H](C)C(=O)NCC(=O)N1CCC[C@H]1C(=O)N[C@@H](CO)C(=O)N[C@@H](CO)C(=O)NCC(=O)N[C@@H](C)C(=O)N1CCC[C@H]1C(=O)N1CCC[C@H]1C(=O)N1CCC[C@H]1C(=O)N[C@@H](CO)C(N)=O [Example 126] (H-Y[Aib]EGT[αMeF]TSDYSI[αMeL]LDKK([AEEA-AEEA-γGlu-C20 diacid])AQ[Aib]AFIEYLIEAGPSSGAPPPS-NH2; N-terminus assumed) | 1.46 | 0.0685 | 0.0644 | 0.0715 | 101
